The target in assay [1] is T1, pyridoxal kinase (PdxK) (Homo sapiens, UniProt O00764).
T1 sequence (O00764 1-312): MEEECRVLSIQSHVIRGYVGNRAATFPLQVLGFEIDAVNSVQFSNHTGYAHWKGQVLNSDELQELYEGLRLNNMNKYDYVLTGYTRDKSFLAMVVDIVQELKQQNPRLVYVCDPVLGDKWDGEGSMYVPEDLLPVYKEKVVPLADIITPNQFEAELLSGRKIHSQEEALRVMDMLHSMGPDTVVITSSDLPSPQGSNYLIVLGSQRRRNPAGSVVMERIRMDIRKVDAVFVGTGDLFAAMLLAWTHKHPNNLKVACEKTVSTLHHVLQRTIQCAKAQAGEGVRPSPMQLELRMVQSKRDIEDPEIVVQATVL
Nature of the assay: steady-state enzyme kinetics ([…] nm), Lineweaver-Burk and secondary plots. Format: biochemical. Also noted: wild-type human recombinant.

Assay [2] has as its target T1, pyridoxal kinase (PdxK). Nature of the assay: enzyme activity assay. In kind it is biochemical. Also noted: human recombinant.

The values that follow come from article PMC4515825, “Molecular mechanisms of the non-coenzyme action of thiamin in brain: biochemical, structural and pathway analysis” (Scientific Reports, 2015).

What is called pKi is the negative decadic logarithm of the Ki, by convention in mol/L.

pKi: −log10 of the molar value.

As to `Cc1ncc(C[n+]2csc(CCO)c2C)c(N)n1` [thiamin], at pyridoxal kinase (PdxK) [1], the negative-log Ki (pKi) is 2.66.
Turning to `CCCCCCCCCCOC(=O)C[n+]1csc(CCO)c1C` [DMHT, 3-decyloxycarbonylmethyl-4-methyl-5-(2-hydroxyethyl) thiazolium], the enzyme activity assay entry on pyridoxal kinase (PdxK) [2] was “Figure 2B shows that both compounds affected PdxK activity, supporting the direct interaction of the enzyme”.
Regarding `Cc1ncc(C[n+]2csc(CCOP(=O)([O-])OP(=O)(O)O)c2C)c(N)n1` [thiamin diphosphate], the pKi on pyridoxal kinase (PdxK) [1] is 2.48.
